According to patent publication US20050245543A1, “Histamine-3 receptor antagonists” (Pfizer Inc, priority 2004, published 2005):
Counter-ions that a name gives are not always drawn.

Key:
[1] = molecular target: T1, rat histamine H3 receptors (Rattus norvegicus, UniProt Q9QYN8); assay: Rat H3 binding (3H-N-methylhistamine displacement, rat frontal brain membranes); details: radioligand 1 nM 3H-N-methylhistamine, 1 hour incubation
T1 construct: Frozen rat frontal brain or frozen human post-mortem frontal brain is homogenized; from tissue; host or cells: rat frontal brain membranes
Method: The in vitro affinity of the compounds in the present invention at the rat or human histamine H3 receptors can be determined according to the following procedure. Frozen rat frontal brain or frozen human post-mortem frontal brain is homogenized in 20 volumes of cold 50 mM Tris HCl containing 2 mM MgCl2 (pH to 7.4 at 4 degrees C.). The homogenate is then centrifuged at 45,000 G for 10 minutes. The supernatant is decanted and the membrane pellet re-suspended by Polytron in cold 50 mM Tris HCl containing 2 mM MgCl2 (pH to 7.4 at 4 degrees C.) and centrifuged again. The final pellet is re-suspended in 50 mM Tris HCl containing 2 mM MgCl2 (pH to 7.4 at 25 degrees C.) at a concentration of 12 mg/mL. Dilutions of compounds are made in 10% DMSO/50 mM Tris buffer (pH 7.4) (at 10×final concentration, so that the final DMSO concentration is 1%). Incubations are initiated by the addition of membranes (200 microliters) to 96 well V-bottom polypropylene plates containing 25 microliters of drug dilutions and 25 microliters of radioligand (1 nM final concentration ^3H—N-methylhistamine). After a 1 hour incubation, assay samples are rapidly filtered through Whatman GF/B filters and rinsed with ice-cold 50 mM Tris buffer (pH 7.4) using a Skatron cell harvester. Radioactivity is quantified using a BetaPlate scintillation counter.

T1 sequence (Q9QYN8 whole entry): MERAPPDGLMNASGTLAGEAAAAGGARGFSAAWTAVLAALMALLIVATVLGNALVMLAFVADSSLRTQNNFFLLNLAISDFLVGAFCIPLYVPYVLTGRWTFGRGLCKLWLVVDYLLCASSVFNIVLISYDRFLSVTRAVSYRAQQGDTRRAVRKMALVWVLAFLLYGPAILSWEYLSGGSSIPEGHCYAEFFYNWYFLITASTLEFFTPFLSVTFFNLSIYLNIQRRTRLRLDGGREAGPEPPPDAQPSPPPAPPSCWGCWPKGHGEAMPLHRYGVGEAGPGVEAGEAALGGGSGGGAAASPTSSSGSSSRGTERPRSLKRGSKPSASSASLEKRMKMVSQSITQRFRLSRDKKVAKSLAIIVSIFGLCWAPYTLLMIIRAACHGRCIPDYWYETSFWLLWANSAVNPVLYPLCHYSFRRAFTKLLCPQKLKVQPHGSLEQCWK

| SMILES | Ki [1] [nM] | melting point [°C] |
| --- | --- | --- |
| CC(c1ccc(-c2ccc(-c3cncnc3)cc2)cc1)N1CCCC1 (stereo not drawn) [Example 20, 5-[4′-(1-Pyrrolidin-1-ylethyl)-biphenyl-4-yl]-pyrimidine] | 25.2 |  |
| Cc1cc(C2CCCN2C)ccc1-c1ccc(CN2CCCCC2)cc1 (stereo not drawn) (as salt: HCl) [Example 79, 1-[2′-Methyl-4′-(1-methylpyrrolidin-2-yl)-biphenyl-4-ylmethyl]-piperidine] |  | 237.1 to 240 |
| C[C@H](c1ccc(-c2ccc(C3CCN(C)CC3)cc2)cc1)N1CCCC1 [Example 77, (R)-1-Methyl-4-[4′-(1-Pyrrolidin-1-ylethyl)-biphenyl-4-yl]-piperidine] | 24.3 |  |
| CC(c1ccc(-c2ccc(-c3cncnc3)cc2)cc1)N1CCCC1 (racemic) [Example 7, (R)-(±)-5-[4′-(1-Pyrrolidin-1-ylethyl)-biphenyl-4-yl]-pyrimidine] | 22.7 |  |
| C[C@@H](c1ccc(-c2ccc(-c3ccncc3)cc2)cc1)N1CCCC1 [Example 2, (S)-(−)-4-[4′-(1-Pyrrolidin-1-ylethyl)-biphenyl-4-yl]-pyridine] | 137 |  |
| COc1ncc(-c2ccc(-c3ccc([C@@H](C)N4CCCC4)cc3)cc2)c(OC)n1 [Example 5, (R)-2,4-Dimethoxy-5-[4′-(1-pyrrolidin-1-ylethyl)-biphenyl-4-yl]-pyrimidine] | 45 |  |
| CC(c1ccc(-c2ccc(-c3ccncc3)cc2)cc1)N(C)C (stereo not drawn) [Example 39, Dimethyl-[1-(4′-pyridin-4-ylbiphenyl-4-yl)-ethyl]-amine] | > 140 |  |
| CC(c1ccc(-c2ccc(-c3ccncc3)cc2)cc1)N1CCCC1 (racemic) [Example 1, (R)-(±)-4-[4′-(1-Pyrrolidin-1-ylethyl)-biphenyl-4-yl]-pyridine] | 39.4 |  |
| C[C@H](c1ccc(-c2ccc(-c3cccnc3)cc2)cc1)N1CCCC1 [Example 4] | 35.8 |  |
| CC(c1ccc(-c2ccc(-c3ccncc3)cc2)cc1)N1CCCC1 (stereo not drawn) [Example 24, 4-[4′-(1-Pyrrolidin-1-ylethyl)-biphenyl-4-yl]-pyridine] | 52 |  |
| CCN1CCC(c2ccc(-c3ccc([C@@H](C)N4CCCC4)cc3)cc2)CC1 [Example 78, (R)-1-Ethyl-4-[4′-(1-pyrrolidin-1-ylethyl)-biphenyl-4-yl]-piperidine] | 21.3 |  |
| CC(c1ccc(-c2ccc(-c3ccccc3C(=O)N(C(C)C)C(C)C)cc2)cc1)N1CCCC1 (stereo not drawn) [Example 28, 4″-(1-Pyrrolidin-1-ylethyl)-[1,1′;4′,1″]terphenyl-2-carboxylic acid diisopropylamide] | 13.6 |  |
| C[C@@H](c1ccc(-c2ccc(C3CCNCC3)cc2)cc1)N1CCCC1 [Example 73, (S)-(−)4-[4′-(1-Pyrrolidin-1-ylethyl)-biphenyl-4-yl]-piperidine] | 72.6 |  |
| CC(c1ccc(-c2ccc(C3CCNCC3)cc2)cc1)N1CCCC1 (racemic) [Example 74, (±)-4-[4′-(1-Pyrrolidin-1-yl-ethyl)-biphenyl-4-yl]-piperidine] | 10 |  |
| CC(c1ccc(-c2ccc(C3CCNCC3)cc2)cc1)N1CCCC1 (racemic) [Example 72, (R)-(±)-4-[4′-(1-Pyrrolidin-1-ylethyl)-biphenyl-4-yl]-piperidine] | 3.5 |  |
| CC(c1ccc(-c2ccc(-c3ccc(S(C)(=O)=O)cc3)cc2)cc1)N1CCCC1 (stereo not drawn) [Example 35, 1-[1-(4-Methanesulfonyl-[1,1′;4′,1″]terphenyl-4″-yl)-ethyl]-pyrrolidine] | 22.7 |  |
| CC(c1ccc(-c2ccc(-c3cccnc3)cc2)cc1)N1CCCC1 (stereo not drawn) [Example 9, 3-[4′-(1-Pyrrolidin-1-ylethyl)-biphenyl-4-yl]-pyridine] | 50 |  |
| CC(c1ccc(-c2ccc(-c3cncnc3)cc2)cc1)N1CCCC1 (racemic) [Example 6, (±)-5-[4′-(1-Pyrrolidin-1-ylethyl)-biphenyl-4-yl]-pyrimidine] | 61.8 |  |

The next lines start with the values.

| Ki [1] [nM] | melting point [°C] | SMILES |
| --- | --- | --- |
| 23 |  | CC(c1ccc(-c2ccc(-c3cncnc3)cc2F)cc1)N1CCCC1 (stereo not drawn) [Example 94, 5-[2-Fluoro-4′-(1-pyrrolidin-1-ylethyl)-biphenyl-4-yl]-pyrimidine] |
| 13.9 |  | Cc1cc(C2CCCN2C)ccc1-c1ccc(CN2CCCCC2)cc1 (stereo not drawn) [Example 79, 1-[2′-Methyl-4′-(1-methylpyrrolidin-2-yl)-biphenyl-4-ylmethyl]-piperidine] |
| 105 |  | CC(c1ccc(-c2ccc(-c3cnc(N)nc3)cc2)cc1)N1CCCC1 (stereo not drawn) [Example 93, 5-[4′-(1-Pyrrolidin-1-ylethyl)-biphenyl-4-yl]-pyrimidin-2-ylamine] |
|  | 238.2 to 239.3 | Cc1cc(C2CCCN2C)ccc1-c1ccc(CNCc2ccc(Cl)cc2)cc1 (stereo not drawn) (as salt: hydrochloride) [Example 96, (4-Chlorobenzyl)-[2′-methyl-4′-(1-methylpyrrolidin-2-yl)-biphenyl-4-ylmethyl]-amine] |
|  | 179.9 to 181.3 | CC(c1ccc(-c2ccc(-c3cncnc3)cc2F)cc1)N1CCCC1 (stereo not drawn) (as salt: HCl) [Example 94, 5-[2-Fluoro-4′-(1-pyrrolidin-1-ylethyl)-biphenyl-4-yl]-pyrimidine] |
| 44 |  | CC(c1ccc(-c2ccc(-c3cnc(O)nc3)cc2)cc1)N1CCCC1 (stereo not drawn) [Example 90, 5-[4′-(1-Pyrrolidin-1-ylethyl)-biphenyl-4-yl]-pyrimidin-2-ol] |
| 42 |  | COc1ncc(-c2ccc(-c3ccc(C(C)N4CCCC4)cc3)cc2)cn1 (stereo not drawn) [Example 92, 2-Methoxy-5-[4′-(1-pyrrolidin-1-ylethyl)-biphenyl-4-yl]-pyrimidine] |
| 14.7 |  | Cc1cc(C2CCCN2C)ccc1-c1ccc(CNCc2ccc(Cl)cc2)cc1 (stereo not drawn) [Example 96, (4-Chlorobenzyl)-[2′-methyl-4′-(1-methylpyrrolidin-2-yl)-biphenyl-4-ylmethyl]-amine] |
| 38 |  | CC(c1ccc(-c2ccc(-c3cnc(Cl)nc3)cc2)cc1)N1CCCC1 (stereo not drawn) [Example 91, 2-Chloro-5-[4′-(1-pyrrolidin-1-ylethyl)-biphenyl-4-yl]-pyrimidine] |
